ChEMBL document CHEMBL1201862, “PubChem BioAssay data set” (2004)
Calls of active or inactive are those of the source.

Assays:
Protein skinhead-1 = biological target: T1, Protein skinhead-1 (Caenorhabditis elegans, UniProt P34707); format: functional
T1 sequence (P34707 whole entry): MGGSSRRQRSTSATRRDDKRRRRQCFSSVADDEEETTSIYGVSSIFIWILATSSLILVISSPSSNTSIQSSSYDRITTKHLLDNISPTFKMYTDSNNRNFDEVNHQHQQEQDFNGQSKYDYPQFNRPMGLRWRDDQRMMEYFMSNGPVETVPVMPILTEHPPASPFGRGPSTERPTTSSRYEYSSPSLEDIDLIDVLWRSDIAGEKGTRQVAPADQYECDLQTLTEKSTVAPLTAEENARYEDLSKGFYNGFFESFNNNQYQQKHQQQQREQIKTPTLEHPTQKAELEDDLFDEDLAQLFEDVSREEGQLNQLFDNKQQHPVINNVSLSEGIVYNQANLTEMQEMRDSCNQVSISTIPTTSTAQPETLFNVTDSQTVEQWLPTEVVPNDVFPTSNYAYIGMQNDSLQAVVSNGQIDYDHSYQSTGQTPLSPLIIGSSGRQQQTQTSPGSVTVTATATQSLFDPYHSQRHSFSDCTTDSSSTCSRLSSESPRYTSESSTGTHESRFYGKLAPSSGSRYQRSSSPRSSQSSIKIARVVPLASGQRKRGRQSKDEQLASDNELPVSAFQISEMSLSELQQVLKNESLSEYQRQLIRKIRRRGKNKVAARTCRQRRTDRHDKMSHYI

H4 = assay: Luminescence Cell-Based Dose Response HTS to Identify Activators of 5'UTR Stem-Loop Driven Prion Protein mRNA Translation in H4 Neuroglioblastoma Cells. [Related pubchem assays: 1829 (Project Summary), 1814 (Primary HTS)]; format: functional; conditions: Homo sapiens
[1] = Luminescence Cell-Based Dose Response HTS to Identify Activators of Luciferase Translation or Activity in H4 […] Cells. [Related pubchem assays: 1829 (Project Summary), 1814 (Primary HTS)]; format: functional
[2] = Luminescence Cell-Based Dose Confirmation HTS to Identify Activators of 5'UTR Stem-Loop Driven Alpha-Synuclein mRNA Translation in H4 Neuroglioblastoma Cells. [Related pubchem assays: 1829 (Project Summary), 1814 (Primary HTS)]; format: functional
[3] = viability of PTEN-deleted HCT116 cells – cell-based, HCT116 PTEN knockout, dose response (AID 1047); format: functional;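 also: HCT116 colon tumor cells with PTEN knocked out; cells exposed to compound for 60 hours before readout; potency for loss of cell viability measured by luminescence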
[4] = viability of HCT116 lacking mutant beta-catenin – cell-based, human colon tumor, dose response (AID 1045); format: functional;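 also: HCT116 colon tumor cells with beta catenin knocked out; cells exposed to compound for 60 hours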
[5] = biological target: T2, High affinity choline transporter 1 (Homo sapiens, UniProt Q9GZV3); assay: human choline transporter blockers, potency – cell-based, 5-point CRC, membrane potential dye, dose response (AID 504840); format: functional
T2 sequence (Q9GZV3 whole entry): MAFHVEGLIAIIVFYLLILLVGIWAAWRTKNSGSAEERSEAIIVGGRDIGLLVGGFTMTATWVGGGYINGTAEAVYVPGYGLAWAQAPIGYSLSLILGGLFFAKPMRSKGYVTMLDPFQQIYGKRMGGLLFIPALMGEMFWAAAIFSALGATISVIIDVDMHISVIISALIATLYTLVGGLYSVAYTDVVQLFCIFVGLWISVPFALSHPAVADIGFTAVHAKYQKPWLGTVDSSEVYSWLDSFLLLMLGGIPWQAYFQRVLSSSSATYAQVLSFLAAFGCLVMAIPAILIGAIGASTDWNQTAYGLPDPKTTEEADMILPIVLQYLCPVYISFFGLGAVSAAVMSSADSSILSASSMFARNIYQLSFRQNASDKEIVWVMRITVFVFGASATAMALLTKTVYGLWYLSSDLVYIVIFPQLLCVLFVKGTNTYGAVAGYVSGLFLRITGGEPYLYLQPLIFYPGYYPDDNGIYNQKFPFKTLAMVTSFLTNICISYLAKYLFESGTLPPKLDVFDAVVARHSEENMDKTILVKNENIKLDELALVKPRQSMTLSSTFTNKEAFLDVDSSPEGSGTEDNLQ

[6] = viability of uninfected HEp-2 cells – cell-based, HTS, cytotoxicity control for RSV inhibitor project, dose response (AID 2410); format: functional; conditions: human respiratory syncytial virus
[7] = blockers of bursicon-stimulated LGR2 cAMP reporter – cell-based, HEK293, CRE-luciferase reporter, cherry pick, set 2, dose response (AID 743343); format: functional;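 also: transfected cells were stimulated with diluted bursicon conditioned medium after compound addition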
[8] = blockade of melanocortin 4 receptor signaling – cell-based, plate reader, cherry pick, counter-screen for LGR2 antagonist project, dose response (AID 743444); format: functional;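 also: transfected HEK 293 cells stimulated with alpha-MSH peptide; potency of inhibitors of the alpha-MSH evoked signal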
[9] = A549 cell cytotoxicity, dose response, cytotoxicity control, plate reader, cherry-pick, antagonist series (AID 743412); format: functional, cell-based
[10] = microbe, parasite or virus in culture; format: functional; conditions: Mycobacterium tuberculosis
[11] = reduction of Shn3 3'UTR-driven luciferase in osteoblasts – cell-based, Clone20 osteoblasts, firefly luciferase, cherry-picked, dose response (AID 624132); format: functional;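 also: firefly luciferase luminescence from reporter carrying the Shn3 3'UTR in osteoblasts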
[12] = non-specific 3'UTR reporter inhibition in Clone20-Shn3RL – cell-based, Renilla luciferase, cherry-picked, counter-screen for Shn3 inhibitor project, dose response (AID 624133); format: functional
[13] = biological target: T3, Zinc finger protein mex-5 (Caenorhabditis elegans, UniProt Q9XUB2); assay: potency of MEX-5 RNA-binding blockers – biochemical, C. elegans, fluorescence polarization, dose response (AID 1960)
T3 sequence (Q9XUB2 whole entry): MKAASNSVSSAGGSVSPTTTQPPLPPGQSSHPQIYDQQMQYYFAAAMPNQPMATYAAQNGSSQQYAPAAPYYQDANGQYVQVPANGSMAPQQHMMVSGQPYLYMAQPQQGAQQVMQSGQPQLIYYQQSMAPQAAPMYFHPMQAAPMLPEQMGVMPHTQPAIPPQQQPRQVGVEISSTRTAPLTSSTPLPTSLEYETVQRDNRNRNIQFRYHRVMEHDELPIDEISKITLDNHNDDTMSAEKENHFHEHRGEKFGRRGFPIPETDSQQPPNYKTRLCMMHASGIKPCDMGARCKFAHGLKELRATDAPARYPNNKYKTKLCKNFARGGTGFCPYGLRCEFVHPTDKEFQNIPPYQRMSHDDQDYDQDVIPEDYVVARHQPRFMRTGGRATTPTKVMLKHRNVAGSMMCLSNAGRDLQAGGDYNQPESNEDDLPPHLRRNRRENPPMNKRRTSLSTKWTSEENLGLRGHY

[14] = biological target: T4, RNA-binding protein pos-1 (Caenorhabditis elegans, UniProt G5EF15); assay: disruptors of C. elegans POS-1 RNA interaction – biochemical, fluorescence polarization, dose response (AID 1964);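 also: purified POS-1 fused to maltose binding protein made in E. coli; potency of compounds blocking POS-1 binding to fluorescent RNA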
T4 sequence (G5EF15 whole entry): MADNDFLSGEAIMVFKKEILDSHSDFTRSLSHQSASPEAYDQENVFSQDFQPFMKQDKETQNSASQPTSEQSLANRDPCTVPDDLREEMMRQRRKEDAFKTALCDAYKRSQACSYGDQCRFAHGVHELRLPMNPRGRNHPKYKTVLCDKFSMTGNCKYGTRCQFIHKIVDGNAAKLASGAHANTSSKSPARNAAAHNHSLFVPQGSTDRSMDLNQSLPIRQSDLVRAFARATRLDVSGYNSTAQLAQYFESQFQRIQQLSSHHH

[15] = Luminescence Cell-Based Dose Response HTS to Identify Inhibitors of 5'UTR Stem-Loop Driven Prion Protein mRNA Translation in H4 Neuroglioblastoma Cells. [Related pubchem assays: 1827 (Project Summary), 1813 (Primary HTS)]; format: functional
[16] = biological target: T5, Microphthalmia-associated transcription factor (Homo sapiens, UniProt O75030); assay: reducers of TRPM1 reporter luminescence, concentration series – cell-based, SK-MEL-5, cherry-picked, set 3, MITF inhibitor project, dose response (AID 493073); format: functional;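 also: SK-MEL-5 melanoma cells with luciferase driven by the MITF target TRPM1 promoter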
T5 sequence (O75030 whole entry): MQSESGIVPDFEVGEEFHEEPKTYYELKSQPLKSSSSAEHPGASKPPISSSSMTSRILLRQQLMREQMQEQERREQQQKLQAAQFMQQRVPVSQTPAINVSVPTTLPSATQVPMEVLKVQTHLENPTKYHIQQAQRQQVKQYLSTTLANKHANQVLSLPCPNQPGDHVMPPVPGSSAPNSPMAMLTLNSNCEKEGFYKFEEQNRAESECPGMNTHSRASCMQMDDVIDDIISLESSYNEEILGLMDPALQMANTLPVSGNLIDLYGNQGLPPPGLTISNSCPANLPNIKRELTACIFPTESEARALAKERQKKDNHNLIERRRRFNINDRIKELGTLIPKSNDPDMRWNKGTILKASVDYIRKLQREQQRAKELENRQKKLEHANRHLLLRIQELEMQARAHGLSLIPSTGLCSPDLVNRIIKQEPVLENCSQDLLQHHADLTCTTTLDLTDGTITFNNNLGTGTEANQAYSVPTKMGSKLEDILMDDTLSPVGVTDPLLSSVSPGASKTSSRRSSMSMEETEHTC

[17] = alpha-synuclein stem-loop luciferase translation blockers – H4 neuroglioma cells, luminescence, confirmation (AID 1988); format: functional, cell-based
[18] = luciferase reporter signal suppression in cells – H4 neuroglioma cells, luminescence, dose response (AID 1990); format: functional, cell-based

## COc1cc2nc(C3CC3)n(NC(=O)c3ccc(Cl)cc3)c(=O)c2cc1OC
Protein skinhead-1
  IC50: > 100 µM (inactive)

## Fc1ccccc1Nc1nc2ccccc2n2nnnc12
H4
  EC50: 62.6 µM (active)
[1]
  EC50: 95.3 µM (active)
[2]
  EC50: 26.2 µM (active)

## ClC(=C\c1ccccc1)/C=N/N1CCN(c2ccccn2)CC1
H4
  EC50: 8.35 µM (active)
[1]
  EC50: 36.5 µM (active)
[2]
  EC50: 0.347 µM (active)

## CCc1cc(SC#N)cc(CC)c1NC(=O)CCl
[3]
  EC50: 8.97 µM (active)
[4]
  EC50: 8.43 µM (active)

## CC1(C(=O)N2CCC(CC3CC(c4ccc(Cl)cc4)=NO3)(C(=O)NCC3CCCCC3)CC2)CC1 (centres undefined)
[5]
  IC50: 6.92 µM (active)

## O=C(Nc1nc2c(ccc3ccccc32)s1)c1ccco1
[6]
  CC50: 14.8 µM (active)
Protein skinhead-1
  IC50: 14.9 µM (active)

## COc1ccc2cc(C(=O)N3CCN(C)CC3)[nH]c2c1
H4
  EC50: > 120 µM (not active)
[1]
  EC50: 9.45 µM (active)
[2]
  EC50: 13.3 µM (active)

## CN(C)c1ccc(C2NC(=O)c3ccccc3N2)cc1 (centres undefined)
[7]
  AC50: 7.27 µM (active)
[8]
  AC50: 9.95 µM (active)

## C=C(C)CN1C(=O)C(O)(CC(=O)c2ccc3c(c2)OCCO3)c2ccccc21 (centres undefined)
[3]
  EC50: 22.1 µM (active)
[4]
  EC50: 22.7 µM (active)

## C[n+]1cn(/N=C/c2ccccc2)c2ccccc21
H4
  EC50: 57.7 µM (active)
[1]
  EC50: > 120 µM (not active)
[2]
  EC50: 17.4 µM (active)

## COc1ccccc1N/C=C/c1onc(C)c1[N+](=O)[O-]
[9]
  AC50: > 52 µM (inactive)
[7]
  AC50: 3.4 µM (active)
[8]
  AC50: 4.75 µM (active)

## CC1CCN(S(=O)(=O)c2nnc(NC(=O)c3cccc([N+](=O)[O-])c3)s2)CC1
[5]
  IC50: 11.5 µM (active)

## Brc1ccc(-c2cn3ccccc3n2)s1
Protein skinhead-1
  IC50: 12.7 µM (active)

## O=C(CNS(=O)(=O)c1cccs1)Nc1ccc2c(c1)OCCO2
H4
  EC50: 2.85 µM (active)
[1]
  EC50: 7.8 µM (active)
[2]
  EC50: 11.6 µM (active)

## CSCCCN=C(S)N1CCN(c2ccc(C(C)=O)cc2)CC1
[10]
  CC50: > 40 µM (active)

## CCCOc1ccc(C(CC(=O)O)NC(=O)CC(c2ccccc2)c2ccccc2)cc1 (centres undefined)
[5]
  IC50: 12 µM (active)

## O=C1Nc2cc(Cl)c(Cl)cc2N(O)N1c1ccc(Cl)cc1
H4
  EC50: > 120 µM (not active)
[1]
  EC50: > 120 µM (not active)
[2]
  EC50: > 120 µM (not active)

## CC(C)CCNC(=O)c1cc2c(O)nc3ccccc3c2s1
[11]
  AC50: 41.5 µM (active)
[12]
  AC50: 18.4 µM (active)

## c1ccc(CSc2nnc(-c3ccco3)n2Cc2ccccc2)cc1
H4
  EC50: 7.76 µM (active)
[1]
  EC50: 6.57 µM (active)
[2]
  EC50: 0.166 µM (active)

## NS(=O)(=O)c1cc2c(cc1Cl)NC(C1C[C@H]3C=C[C@@H]1C3)NS2(=O)=O (some centres undefined)
H4
  EC50: > 120 µM (not active)
[1]
  EC50: > 120 µM (not active)
[2]
  EC50: > 120 µM (not active)

## Cc1ccc2nc3sc(C(=O)N4CCCc5ccccc54)c(N)c3cc2c1
[13]
  EC50: > 300 µM (inconclusive)
H4
  EC50: > 120 µM (not active)
[1]
  EC50: 7.55 µM (active)
[14]
  EC50: > 300 µM (not active)
[2]
  EC50: > 120 µM (not active)

## CCOC(=O)CC1(CC(=O)OCC)NC(=O)c2c(C)sc(C(=O)OCC)c2N1
[5]
  IC50: 13.8 µM (active)

## CCOC(=O)c1cccc(NC(=O)CCS(=O)(=O)c2cccc3nsnc23)c1
[5]
  IC50: 14.8 µM (active)

## FC(F)(F)c1ccccc1Cc1c(-c2ccccc2)nc2ccc(Br)cn12
Protein skinhead-1
  IC50: > 100 µM (inactive)

## CC(C)CC(=O)Nc1ccc(Nc2ccccc2)cc1
Protein skinhead-1
  IC50: > 100 µM (inactive)

## COc1ccc(C2=NN(CN3C(=O)C(=O)c4ccccc43)C(c3ccc(OC)cc3)C2)cc1 (centres undefined)
H4
  EC50: 0.112 µM (active)
[2]
  EC50: 14.6 µM (active)

## CCCNC(=O)c1c(NC(=O)C2COc3ccccc3O2)sc2c1CCCC2 (centres undefined)
[3]
  EC50: 8.59 µM (active)
[4]
  EC50: 9.98 µM (active)

## CC(=O)N(C1=NCCCS1)c1ccc(F)cc1
Protein skinhead-1
  IC50: > 100 µM (inactive)

## Cc1ccc(/C=C(\NC(=O)c2ccc(C)cc2)c2n[nH]c(S)n2)cc1
[10]
  CC50: > 40 µM (active)

## CCCn1nc2cc(C(=O)NCc3ccc(C)cc3)ccc2c1OCC
[5]
  IC50: 8.18 µM (active)

## O=C(Nc1nc2cc3c(cc2s1)OCO3)C1=COCCO1
[15]
  EC50: 6.64 µM (active)
[16]
  AC50: 3.77 µM (active)
[17]
  EC50: 1.22 µM (active)
[18]
  EC50: 2.39 µM (inconclusive)

## O=C(c1ccc(O)cc1)c1ccc(Cl)cc1
[5]
  IC50: 11 µM (active)
